Source: patent US20170128592A1, “TARGETED POLYMERIC NANO-COMPLEXES AS DRUG DELIVERY SYSTEM” (Indian Institute of Technology, Bombay, priority 2015, published 2017)

Key:
Format in all cases: cell-based, human
[1] = test system: pEGFR expression in Huh7 cells; test: Immunofluorescence (CLSM) of pEGFR expression; details: 48 hr
Description: (§1) To evaluate the effect of nanocomplexes on EGFR and tubulin interactions, Huh7 cells (5×10^4 cells/well) in 24 well plates were treated with 15 nM of CA4, PLGA-b-PEG-CA4 NP, Cet-PLGA-b-PEG-CA4 NP, 5 μM of 2 ME, PLGA-b-PEG-2 ME NP, Cet-PLGA-b-PEG-2 ME NP and combinatorial Cet-PLEA-b-PEG-CA4 NP+Cet-PLGA-b-PEG-2 ME NP (15 nM+5 μM) for 48 hr. Untreated and bare PLGA-b-PEG NP treated cells served as the negative controls. Cells were then fixed with 3.7% formaldehyde at 37° C. for 30 min and immunostained with primary antibodies anti-EGFR, anti-pEGFR XP rabbit monoclonal antibodies (Cell Signaling Technology Inc., USA), anti-α-Tubulin mouse monoclonal antibody (Signa Aldrich, USA) and anti-pHistone H3 rabbit polyclonal antibody (Ser-10, Santa Cruz Biotechnology, USA) followed by incubation with secondary antibody FITC-conjugated anti-mouse IgG or FITC-conjugated anti-rabbit IgG (Sigma Aldrich, USA) or anti-mouse IgG-Alexa 568 conjugate (Invitrogen, USA). Hoechst 33258 was used for DNA counterstaining and cells were examined under CLSM.

[2] = test system: pHistone H3 in Huh7 cells; test: Immunofluorescence of Histone H3 phosphorylation (Serine 10); details: 48 hr
Description: as §1

Huh7 cells [3] = test: SRB cytotoxicity assay; details: Huh7, 48 hr incubation, mean ± SD of three experiments
Description: For cytotoxicity measurements, Hep G2 and Huh7 cells were incubated in 96-well plates (Nunc, USA) at 5×10^4 cells/well density and then treated with bare PLGA-b-PEG NP, Cet-PLEA-b-PEG NP (50-250 μg/mL), free drug CA4, its nano-complexes ([…]) and free drug 2 ME, its nano-complexes (1-15 μM) for 48 hr. […] The standard SRB assay was used to measure the cell viabilities. The absorbance was measured with a 96-well fluorescence plate reader (SPECTRAmax M2, Molecular Devices, USA) equipped with the SOFTmax Pro software (Molecular Devices), at a 550 nun wavelength. IC50 values of the free drugs and all the nanocomplexes were evaluated using OriginPro 8.0 software.

Huh7 cells [4] = test: Annexin V/PI apoptosis assay by flow cytometry; details: IC50 concentrations, 48 hr
Description: Annexin V and Propidium iodide (PI) staining detection kit was used to quantify apoptotic cells. […] A combination of Cet-PLGA-b-PEG-CA4 NP Cet-PLEA-b-PEG-2ME NP (15 nM+5 μM) was also evaluated. Untreated and bare PLGA-b-PEG NP treated cells served as the negative controls. Cells were washed twice with PBS and resuspended in 400 μL of 1× binding buffer. Then, 5 μL of Annexin V-FITC and PI solution were added to the test samples, incubated for 15 min in dark at room temperature, and analyzed using flow cytometer BD FACS ARIA special order system equipped with the BD FACSDiva. (Becton and Dickinson, USA) software program. The fluorescence of 20,000 cells were gated and counted for each sample.

SMILES	effect on pEGFR expression by CLSM ([1]; 15 nM)	pHistone H3 positive cells ([2]; 15 nM)	IC50 (Huh7 cells [3])	induction of apoptosis (Huh7 cells [4])	effect on pEGFR expression by CLSM ([1]; 5 μM)	pHistone H3 positive cells ([2]; 5 μM)
COc1ccc(/C=C\c2cc(OC)c(OC)c(OC)c2)cc1O [CA4, combretastatin A4]	moderately affected	4±0.3%	14.9 nM	11.5%	–	–
COc1cc2c(cc1O)CC[C@@H]1[C@@H]2CC[C@]2(C)[C@@H](O)CC[C@@H]12 [2 ME, 2-methoxyestradiol]	–	–	3500 nM	2.6%	moderately affected	2±0.7%
